The subject of test [1] is D. desulfuricans (ATCC#14563) biofilms. Put plainly: Photodynamic disinfection of peg biofilms, 670 nm laser, anaerobic (Example X). The test is classed as cell-based, Desulfovibrio desulfuricans. The note with it: control: methylene blue formulation alone, no laser light.
Test [2] deals with Desulfovibrio vulgaris (ATCC#29579). Put plainly: In vitro photodynamic disinfection of planktonic bacteria, aerobic and anaerobic (Example IX). The test is classed as cell-based. The protocol: An in vitro photodynamic disinfection model was used to evaluate antibacterial efficacy against a strain of bacteria commonly found in biofilms growing on the inner surface of industrial oil and gas pipelines. […] This organism is a facultative anaerobe, and typically grows in nature in environments that contain little or no oxygen. Thus, prior to the experiments the bacteria was grown on pre-reduced solid media (brucella blood agar enriched with haemin and vitamin K) at 37° C. under anaerobic conditions. The exposures to photodynamic disinfection were run in both anaerobic and aerobic conditions in order to determine the importance of local oxygen during the photoreaction. […] In addition, several experimental conditions were run in the presence of L-tryptophan, which is a known scavenger of singlet oxygen and other oxygen derived free radicals. The addition of L-tryptophan was designed to test whether the antimicrobial killing effect of photodynamic disinfection was in fact dependent on the generation of reactive forms of oxygen. […] In addition, controls consisting of exposure to either photosensitizer or illumination alone were run to ensure that neither of these variables contributed to bacterial killing on their own. For these photodynamic disinfection experiments, log phase planktonic bacterial inoculum was prepared to a concentration of 10^7 colony-forming units per milliliter (CFU/ml) in a buffered saline solution. […] After illumination, samples were serially diluted and plated on tryptic soy agar for 48 hours at 37° C. Raw surviving colony counts for each experimental condition were averaged and back-calculated given dilution factor to give data in CFU/ml. The data was presented as CFU/ml of surviving organisms after treatment, and kill rate was calculated as this value in experimental samples vs. control (no light, no photosensitizer) and expressed as both a log and percentage reduction in viability. The entire experimental protocol was performed in the dark, and all samples were exposed and plated one at a time to limit ambient light exposure and to maintain the exposure time of bacteria to test solution uniform across all replicates. All experimental and control conditions were run in triplicate for each individual experiment, and experiments were performed on three separate occasions to verify reproducibility.

In test [3] the test system is D. vulgaris (ATCC#29579) biofilms. The test can be described thus: Photodynamic disinfection of peg biofilms, 670 nm laser, anaerobic (Example X). The test is classed as cell-based, Desulfovibrio vulgaris. The settings on record: control: methylene blue formulation alone, no laser light.
Another test has as its system D. vulgaris biofilms. The test can be described thus: Photodynamic disinfection of well-plate biofilms, broadband light, anaerobic (Example XI). The test is classed as cell-based, Desulfovibrio vulgaris. The settings on record: 0.1% w/v, 30 seconds, then 60 seconds broadband illumination (150 watt haloid lamp). The protocol:
(§1) In this study, biofilms of sulfate reducing bacteria were treated with photodynamic disinfection as in Example X above. In these experiments, however, illumination of the biofilms was performed using a broadband (wide wavelength) light source instead of a laser. […] For the broadband light photodynamic disinfection exposures, biofilms of D. vulgaris and D. sulfuricans were grown on the inner surface of flat-bottomed 96-well plates. In brief, 50 μl of liquid inoculum in log growth phase was added to each well, and plates were then incubated (37° C.) on an […] shaker at 125 rpm for 48 hours in order to allow biofilm growth. […] After this growth period, plates were removed from the shaker into an anaerobic cabinet, where all photodynamic disinfection treatments were performed. […] Raw surviving colony counts for each experimental condition were averaged and back-calculated given dilution factor to give data in CFU/ml. The data was presented as CFU/ml of surviving organisms after treatment, and kill rate was calculated as this value in experimental samples vs. control (no light, no photosensitizer) and expressed as both a log and percentage reduction in viability. […]

Test [4] concerns D. desulfuricans biofilms. The test is described as above. It is filed as cell-based, Desulfovibrio desulfuricans. The note with it: 0.1%, then 60 second broadband illumination. On the procedure: as §1
Test [5] concerns D. desulfuricans (ATCC#14563) biofilms. The test can be described thus: Treatment of peg biofilms with chemical disinfectant, anaerobic (Example X). The test is classed as cell-based, Desulfovibrio desulfuricans. The protocol:
(§2) Homogenous biofilms of the sulfate reducing organisms D. vulgaris (ATCC#29579) and D. desulfuricans (ATCC#14563) were grown on hard plastic pegs using a previously published protocol and system (Innovotech, Calgary, Canada). Briefly, bacterial suspensions of D. vulgaris and D. desulfuricans consisting of 10^8 CFU/ml were prepared in modified Barrs medium for sulfate reducers (ATCC), then diluted 1:40. 200 μl of this inoculum was added to each well of a 96-well plate. 96-peg lids were then placed into the wells and the assembly was incubated at 37° C. on an Excella E2 gyrorotary shaker (Fisher Scientific) at 125 rpm for 24 hours. For both biofilm protocols, all inoculum and plates were prepared and incubated anaerobically. During the incubation period, the visible formation of an insoluble black residue in each well indicated bacterial metabolism, and after incubation a visible biofilm was evident on each pegs.
(§3) For treatment of biofilms with benzalkonium chloride (BAC), biofilms grown on pegs as described above were used. 96-peg lids were removed from the bacterial inoculum after 24 hours of incubation, and rinsed twice to remove any free-floating organisms by placing the peg lid in 96-well plates containing 300 μl of sterile water. Pegs were then placed in aqueous solutions containing either 0% (water only control), 0.01%, 0.1%, or 1% BAC for 30 seconds. After this exposure pegs were immediately placed in recovery media and processed/plated as described above for enumeration of surviving organisms. All BAC exposure conditions were run in triplicate in anaerobic conditions for each organism.

The subject of test [6] is D. vulgaris (ATCC#29579) biofilms. Described as above. It is filed as cell-based, Desulfovibrio vulgaris. The protocol: as §2, §3
Setting [7] is: aerobic, 0.01% w/v aqueous methylene blue, 670 nm diode laser 20.6 J/cm2 (60 seconds), planktonic.
Setting [8] is: anaerobic, 0.01% w/v aqueous methylene blue, 670 nm laser 20.6 J/cm2, planktonic.
The mark [9] stands for this setting: 30 second exposure to 0.01% aqueous solution.
Setting [10] is: 30 second exposure to 0.1% aqueous solution.
Where [11] appears, read: 30 second exposure to 1% aqueous solution.

Regarding `CN(C)c1ccc2nc3ccc(=[N+](C)C)cc-3sc2c1` [methylene blue], the “reduction in biofilm viability” value in test [1] and in test [3] was “Neither the methylene blue formulation nor the laser light alone led to any significant reduction” in each case. The values for the killing in test [2] (setting [7]) and in test [2] (setting [8]) were greater than 99.99% and greater than 99.9%, respectively. Further, the “log10 reduction in viability vs. non-treated controls” value in test [2] (setting [7]) amounted to 4.4±2.3 log10; in test [2] (aerobic, 0.01% w/v methylene blue with 20 mM L-tryptophan, 670 nm laser 20.6 J/cm2, planktonic), 1.7±0.6 log10. In addition, the “log10 reduction vs. non-treated control” value in test [2] (setting [8]) was 3.5±0.8 log10. The “log10 reduction from non-treated control” value in test [2] (anaerobic, 0.01% w/v methylene blue with 20 mM L-tryptophan, 670 nm laser 20.6 J/cm2, planktonic) is 2.5±2.1 log10. In test [2] (control: photosensitizer composition alone, no illumination), the antibacterial action result was “No significant antibacterial action”. The “decrease in viability compared to non-treated control” value in the test with D. vulgaris biofilms came out at 1.5 log10. Moreover, the inhibition at 0.1 % strength with D. vulgaris biofilms (Nitratidesulfovibrio vulgaris, read-out: decrease in viability compared to non-treated control) was roughly 95%. Further, in test [4], the reduction in viability entry is listed as “did not result in a significant reduction in viability”.
Take benzalkonium chloride [BAC]: the “reduction in viability vs. non-treated control” value in test [5] (setting [9]) is 0.6 log10; in test [5] (setting [10]) it was 2.7 log10; in test [5] (setting [11]), 1.9 log10; in test [6] (setting [9]), 0.5 log10; in test [6] (setting [10]), 1.4 log10; in test [6] (setting [11]), 1.5 log10.
